In experiment [1] the test system is Candida albicans KE-2. Put plainly: Therapeutic effect against experimental candidiasis in mice. Type of experiment: in vivo. Particulars: KE2, po, 120 h, mouse survival ratio on the 5th day after infection, Jcl-ICR female mouse, 50 mg/kg orally three times (0, 4, 24 hours). As to the method:
After Candida albicans KE-2 was incubated on Sabouraud's glucose agar at 28 °C for 48 hr., it was suspended in Sabouraud's glucose broth and the cells ([…]) were injected to a tail vein of Jcl-ICR female mouse (4 weeks age; weight : 18 - 20 g). A suspension of the test compound in 2 % gum arabic was orally administered three times, immediately after infection of the yeast ( 0 hour), after 4 hours and after 24 hours, as a dosage of 50 mg/kg. Non-treated group was used as control. Each eight mice per group was used in control group and treated group. All the mice in control group died within 48 hr. after infection. Therapeutic effect of the test compound was judged by mouse survival ratio on the 5th day after infection.

Experiment [2] concerns Rhizoctonia solani. The experiment is described as follows: Control of cucumber damping-off by soil drench. Type of experiment: in vivo. Particulars: 30 ml per cup, judged 15 days after inoculation. As to the method: (§1) Damping-off was observed 15 days after sowing, and disease degree and control effect were obtained from the following equations. [formula] [formula] where diseased seedlings included damping-off and unemerged'seeds due to infection. For the foliar diseases, disease development was observed 10 - 14 days after inoculation of spores, and control effect was obtained by the following index.
The test compound was dissolved in a small amount of acetone and suspended in demineralized distilled water containing a spreader, to a concentration of 125 ppm and 31 ppm. The soil sterilized by an autoclave was put into paper cups (diameter : 7.5 cm; depth : 6 cm) and cucumber seeds (c.v. : Matsukaze) were sown in the cups (10 seeds/pot). Then the soil surface was covered with the following soil containing pathogen. And then 30 ml of the formation of the test compound was applied to the soil in the cup.
Rhizoctonia solani incubated in a bran medium at 28 °C for 5 days was put into sterile soil and cultured for 24 hr. The inoculated soil was diluted with sterile soil to about 4 times volume. The soil surface in the cups containing cucumber seeds was covered with the soil containing Rhizoctonia solani.
Control effect was judged 15 days after inoculation and control percent was obtained as described in Experiment 3.

Experiment [3] deals with Sphaerotheca fuliginea. The experiment is described as follows: Control by seed-soaking: powdery mildew in cucumber. Type of experiment: in vivo. The protocol:
(§2) The test compound was dissolved in 0.2 ml of acetone and suspended in demineralized distilled water containing a small amount of spreader, to a concentration of 500 ppm. The suspension was further diluted to one quarter dilution with demineralized distilled water (containing a small amount of spreader) to give a suspension in 125 ppm. All seeds of oats, wheat and cucumber were soaked in these suspensions at room temperature for an hour and then the seeds were air-dried.
(§3) The seeds as described above were sown in plastic pots (diameter : 9 cm). For rust and powdery mildews, the pots were kept in a glasshouse for 1 - 3 weeks until the seeds grew to young plants. The young oats (10 - 20 plants per pot) were inoculated by dusting with spores of Puccinia coronata, and the wheat (10 - 20 plants per pot) was also inoculated by spraying with spores of Erysiphe graminis f. sp. tritici, and the cucumber (1 plant per pot) was also inoculated by spraying with spore suspension of Sphaerotheca fuliginea. These inoculated plants were further kept in a glasshouse for 10 - 14 days until assessment. For damping-off, the treated seeds were sown in paper pots (diameter : 7.5 cm; depth : 6 cm) which contained soil infested with Rhizoctonia solani by mixing sterilized soil and pre-cultured fungus. Then the pots were kept in a humid glasshouse at 25 - 32 ^*C.
as §1

Experiment [4] relates to Rhizoctonia solani. Put plainly: Control by seed-soaking: Rhizoctonia damping-off in cucumber. It counts as in vivo. Particulars: 360 h, seed-soaking, observed 15 days after sowing, control effect by equation, read-out: Control Index Rhizoctonia Damping-Off in Cucumber. The protocol:
as §2, §3, §1

In experiment [5] the test system is Sphaerotheca fuliginea. The experiment is described as follows: Control of cucumber powdery mildew by foliar spray. It counts as in vivo. The note with it: observed 10 days after inoculation; for Control Index Preventive Effect: inoculation 24 hr. after application; for Control Index Curative Effect: inoculation 24 hr. before application. As to the method:
The test compound was dissolved in a small amount of acetone and suspended in demineralized distilled water containing a spreader, to a concentration of 7.8 ppm and 2.0 ppm. Young cucumber plants (c.v. Tsukuba-Shiroibo) of 2-leaf stage grown in pots were sprayed sufficiently with the suspension.
Spores of Sphaerotheca fuliginea cultured in cucumber plants were collected and suspended in distilled water. Inoculation was made by spraying with the spore suspension to the test plant of 24 hr. after application of the test compound (preventive control) or 24 hr. before application (curative control).
Development of the disease was observed 10 days after inoculation and control index was obtained as described in Experiment 3.

Experiment [6] concerns Candida albicans KE-2. The experiment is described as follows: Inhibition test against pseudomycelium formation of Candida albicans. It counts as cell-based. The note with it: KE2, minimum effective concentration preventing typical pseudomycelium formation, Eagle-MEM + 20 % calf serum, 18 hours at 37 °C, read-out: Inhibitory Concentration of Pseudo-myselium Formation. As to the method:
Candida albicans KE-2 was inoculated to Eagle-MEM medium (Nissan 2 made by Nissui Seiyaku, Ltd.) supplemented with 20 % calf serum so that its final inoculum of yeast cell might be 1 x 10^6 yeast cells per milliliter. The test compounds were added thereon in two fold dilution series. After incubation for 18 hours at 37 °C, the fungal growth in each drug concentration was smeared and fixed on a slide glass, and the presence or absence of the pseudomycelium formation was examined by a microscope following Giemsa staining. Minimum effective concentration was defined as the lowest concentration of the compound which prevented typical pseudomycelium formation.

Experiment [7] deals with Erysiphe graminis f. sp. tritici. Put plainly: Control by seed-soaking: powdery mildew in wheat. It counts as in vivo. The protocol:
as §2, §3, §1

Experiment [8] concerns Puccinia coronata. The experiment is described as follows: Control by seed-soaking: crown rust in oats. Type of experiment: in vivo. As to the method: as §2, §3, §1

Take `OC(Cn1cncn1)(c1ccon1)c1ccc(Cl)cc1Cl` (stereo not drawn) [Ia - 3]: the responders at 50 mg/kg in experiment [1] came to 100%. Moreover, the Control in experiment [2] (soil drench 31 ppm) and in experiment [2] (soil drench 125 ppm) was 100% throughout. Besides, the “Control Index Powdery Mildew in Cucumber” value was 50 (Leaves covered with symptom between 46 % and 65 % area) in experiment [3] (125 ppm); 70 (Leaves covered with symptom between 16 % and 45 % area) in experiment [3] (500 ppm). Also, the pest or weed control at 125 ppm in experiment [4] came to 100%. In addition, in experiment [4], the pest or weed control at 500 ppm turned out to be 94%. The “Control Index Preventive Effect” value in experiment [5] (foliar spray 2.0 ppm) and in experiment [5] (foliar spray 7.8 ppm) was 100 throughout. Further, the “Control Index Curative Effect” value in experiment [5] (foliar spray 2.0 ppm) and in experiment [5] (foliar spray 7.8 ppm) was 100 in each case. For the same molecule, in experiment [6], the minimal effective concentration amounted to 0.02 µg/mL. Moreover, the “Control Index Powdery Mildew in Wheat” value in experiment [7] (125 ppm) was 70 (Leaves covered with symptom between 16 % and 45 % area); in experiment [7] (500 ppm) it was 100. For the same molecule, the “Control Index Crown Rust in Oats” value is listed as 97 (Leaves covered with symptom less than 3 % area) in experiment [8] (125 ppm) and 100 in experiment [8] (500 ppm).

For `OC(Cn1cncn1)(c1ccc(Cl)cc1)c1ccon1` (stereo not drawn) [Ia - 2], the responders at 50 mg/kg in experiment [1] is 100%. Besides, the Control in experiment [2] (soil drench 31 ppm) and in experiment [2] (soil drench 125 ppm) was 100% throughout. Besides, the “Control Index Powdery Mildew in Cucumber” value was 70 (Leaves covered with symptom between 16 % and 45 % area) in experiment [3] (125 ppm); 90 (Leaves covered with symptom between 4 % and 15 % area) in experiment [3] (500 ppm). Further, in experiment [4], the pest or weed control at 125 ppm amounted to 93%. Also, the pest or weed control at 500 ppm in experiment [4] amounted to 100%. Also, the entries for the “Control Index Preventive Effect” value in experiment [5] (foliar spray 2.0 ppm) and in experiment [5] (foliar spray 7.8 ppm) were 97 (Leaves covered with symptom less than 3 % area) and 100, respectively. Moreover, the “Control Index Curative Effect” value in experiment [5] (foliar spray 2.0 ppm) and in experiment [5] (foliar spray 7.8 ppm) was 100 in each case. The minimal effective concentration in experiment [6] was 0.04 µg/mL. Also, the “Control Index Powdery Mildew in Wheat” value in experiment [7] (125 ppm) and in experiment [7] (500 ppm) was 100 in each case. In addition, the “Control Index Crown Rust in Oats” value was 70 (Leaves covered with symptom between 16 % and 45 % area) in experiment [8] (125 ppm); 100 in experiment [8] (500 ppm).

In the case of `OC(Cn1cncn1)(c1ccon1)c1ccc(F)cc1F` (stereo not drawn) [Ia - 4], in experiment [1], the responders at 50 mg/kg worked out at 100%. For the same molecule, the Control in experiment [2] (soil drench 31 ppm) and in experiment [2] (soil drench 125 ppm) was 100% each time. The “Control Index Powdery Mildew in Cucumber” value in experiment [3] (125 ppm) is 50 (Leaves covered with symptom between 46 % and 65 % area); in experiment [3] (500 ppm), 70 (Leaves covered with symptom between 16 % and 45 % area). Besides, the pest or weed control at 125 ppm in experiment [4] was found to be 53%. In addition, in experiment [4], the pest or weed control at 500 ppm was 86%. Also, the “Control Index Preventive Effect” value in experiment [5] (foliar spray 2.0 ppm) is 97 (Leaves covered with symptom less than 3 % area); in experiment [5] (foliar spray 7.8 ppm) it was 100. For the same molecule, the “Control Index Curative Effect” value in experiment [5] (foliar spray 2.0 ppm) and in experiment [5] (foliar spray 7.8 ppm) was 100 each time. In experiment [6], the minimal effective concentration turned out to be 0.16 µg/mL. For the same molecule, the “Control Index Powdery Mildew in Wheat” value in experiment [7] (125 ppm) was 50 (Leaves covered with symptom between 46 % and 65 % area); in experiment [7] (500 ppm) it was 100. Further, the “Control Index Crown Rust in Oats” value was 50 (Leaves covered with symptom between 46 % and 65 % area) in experiment [8] (125 ppm); 97 (Leaves covered with symptom less than 3 % area) in experiment [8] (500 ppm).
